Measured values from patent publication US20230151003A1, “COMPOUNDS AND METHODS OF USE” (Exelixis, Inc., priority 2020, published 2023).
Counter-ions that a name gives are not always drawn.

What was measured:
Met = Met (Homo sapiens, UniProt P08581); assay: Met autophosphorylation ELISA in PC-3 cells; assay type: cell-based; set-up: endogenous in cells; host or cells: PC-3 prostate cancer cells (ATCC #CRL-1435); conditions: Table 3 Cellular Activities, HGF-stimulated, phospho-Met ELISA, read-out: c-Met IC50
Method in brief: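 IC50 derived by 4-parameter logistic regression of phospho-Met (panTyr) sandwich ELISA signal, scaled between HGF-stimulated DMSO and reference-inhibitor lysates. PC-3 cells, serum-starved 3 h, received an 8-point compound series (0.3% DMSO) for 1 h before 10 min stimulation with 100 ng/mL human HGF.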

Mer = target: T1, Mer (Homo sapiens, UniProt Q12866); assay: Mer autophosphorylation ELISA in transient transfected 293A cells; assay type: cell-based; conditions: Table 3 Cellular Activities; MERTK-transfected 293A cells, phospho-Mer ELISA
T1 construct: host or cells: 293A cells (Thermo Fisher #R70507)
T1 sequence (Q12866 21-999): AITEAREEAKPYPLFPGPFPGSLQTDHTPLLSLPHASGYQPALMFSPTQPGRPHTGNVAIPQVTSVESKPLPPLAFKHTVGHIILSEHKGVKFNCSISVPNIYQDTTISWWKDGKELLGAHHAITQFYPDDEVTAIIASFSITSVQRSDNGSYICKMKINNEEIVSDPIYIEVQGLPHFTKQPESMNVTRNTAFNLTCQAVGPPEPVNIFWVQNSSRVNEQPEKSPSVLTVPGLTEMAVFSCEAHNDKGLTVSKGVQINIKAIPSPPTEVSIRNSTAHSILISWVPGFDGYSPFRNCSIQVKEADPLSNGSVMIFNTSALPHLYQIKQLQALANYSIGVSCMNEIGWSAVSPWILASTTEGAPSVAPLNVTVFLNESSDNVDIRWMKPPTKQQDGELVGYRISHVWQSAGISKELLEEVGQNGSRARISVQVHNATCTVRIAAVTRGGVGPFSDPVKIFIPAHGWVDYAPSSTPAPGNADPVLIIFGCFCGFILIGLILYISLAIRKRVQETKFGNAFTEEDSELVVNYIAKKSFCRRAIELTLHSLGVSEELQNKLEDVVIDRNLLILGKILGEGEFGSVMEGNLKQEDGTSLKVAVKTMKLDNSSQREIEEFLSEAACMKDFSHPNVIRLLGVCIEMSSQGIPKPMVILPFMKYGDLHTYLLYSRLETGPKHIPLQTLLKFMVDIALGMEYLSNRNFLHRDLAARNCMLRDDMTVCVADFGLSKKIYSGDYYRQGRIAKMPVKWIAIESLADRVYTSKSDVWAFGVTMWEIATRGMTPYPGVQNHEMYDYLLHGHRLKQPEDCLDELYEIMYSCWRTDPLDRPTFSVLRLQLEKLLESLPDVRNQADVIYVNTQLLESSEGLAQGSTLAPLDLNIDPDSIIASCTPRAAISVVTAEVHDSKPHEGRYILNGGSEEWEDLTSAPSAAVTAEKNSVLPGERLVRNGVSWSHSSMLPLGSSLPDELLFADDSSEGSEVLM
Method in brief: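 Phospho-Mer quantified by ELISA in lysates of transiently MERTK-transfected 293A cells after 1 h exposure to an 8-point compound series, serum-free, 0.3% DMSO. Activity normalized between DMSO-treated (100%) and reference inhibitor-treated (0%) lysates; IC50 via 4-parameter nonlinear regression.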

Sequence of Met (P08581 25-1390): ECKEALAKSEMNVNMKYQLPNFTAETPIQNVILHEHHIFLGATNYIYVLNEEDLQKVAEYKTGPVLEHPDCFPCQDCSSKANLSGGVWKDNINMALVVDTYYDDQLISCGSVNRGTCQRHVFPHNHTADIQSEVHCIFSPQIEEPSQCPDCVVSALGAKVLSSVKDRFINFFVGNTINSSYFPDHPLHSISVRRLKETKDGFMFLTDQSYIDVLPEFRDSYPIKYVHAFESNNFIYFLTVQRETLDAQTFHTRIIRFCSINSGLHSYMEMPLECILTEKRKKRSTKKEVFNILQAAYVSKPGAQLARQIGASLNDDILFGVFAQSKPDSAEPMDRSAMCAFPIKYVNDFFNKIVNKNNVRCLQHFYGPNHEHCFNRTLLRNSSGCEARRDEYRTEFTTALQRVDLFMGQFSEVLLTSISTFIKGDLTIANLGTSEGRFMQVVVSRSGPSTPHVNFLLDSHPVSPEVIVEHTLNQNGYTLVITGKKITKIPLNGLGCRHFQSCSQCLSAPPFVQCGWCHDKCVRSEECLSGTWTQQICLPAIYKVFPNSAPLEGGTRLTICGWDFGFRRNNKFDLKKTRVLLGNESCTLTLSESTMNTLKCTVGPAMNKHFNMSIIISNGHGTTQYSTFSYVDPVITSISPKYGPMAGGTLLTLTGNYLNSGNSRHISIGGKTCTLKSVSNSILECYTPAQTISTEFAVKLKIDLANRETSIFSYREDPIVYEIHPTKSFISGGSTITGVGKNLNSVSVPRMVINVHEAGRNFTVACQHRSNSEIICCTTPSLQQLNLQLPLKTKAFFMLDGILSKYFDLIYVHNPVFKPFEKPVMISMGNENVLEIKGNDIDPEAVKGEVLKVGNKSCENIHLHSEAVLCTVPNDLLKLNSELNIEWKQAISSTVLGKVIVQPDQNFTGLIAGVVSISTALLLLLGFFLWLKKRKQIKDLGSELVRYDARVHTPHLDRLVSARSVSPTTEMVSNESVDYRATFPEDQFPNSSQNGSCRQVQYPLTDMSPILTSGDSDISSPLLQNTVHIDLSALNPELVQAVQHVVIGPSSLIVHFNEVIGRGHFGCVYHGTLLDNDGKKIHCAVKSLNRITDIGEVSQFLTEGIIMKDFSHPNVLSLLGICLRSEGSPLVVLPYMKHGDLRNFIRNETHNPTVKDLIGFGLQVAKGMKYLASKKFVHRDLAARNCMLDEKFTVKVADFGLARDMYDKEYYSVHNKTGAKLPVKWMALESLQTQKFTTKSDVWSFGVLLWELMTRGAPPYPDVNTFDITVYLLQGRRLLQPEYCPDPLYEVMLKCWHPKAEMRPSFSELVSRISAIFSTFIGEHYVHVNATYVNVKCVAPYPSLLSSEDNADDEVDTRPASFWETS

Structure (SMILES) | IC50 (Met) [nM] | IC50 (Mer) [nM]
COc1cc2nccc(Oc3ccc(NC(=O)c4c(C)n(C)c(C)c(-c5ccco5)c4=O)cc3)c2nc1OC [Compound 164, N-[4-[(6,7-Dimethoxy-1,5-naphthyridin-4-yl)oxy]phenyl]-5-(furan-2-yl)-1,2,6-trimethyl-4-oxopyridine-3-carboxamide] | ≤ 100 | ≤ 100
COc1cc2nccc(Oc3ccc(NC(=O)c4cnc(C)c(-c5cc(C)nn5C)c4O)cc3F)c2nc1OC [Compound 136, N-[4-[(6,7-Dimethoxy-1,5-naphthyridin-4-yl)oxy]-3-fluorophenyl]-5-(2,5-dimethylpyrazol-3-yl)-4-hydroxy-6-methylpyridine-3-carboxamide] | ≤ 100 | ≤ 100
COc1cnc2c(Oc3ccc(NC(=O)c4cnc(C)c(-c5ccsc5)c4O)cc3F)ccnc2c1 [Compound 98, N-[3-Fluoro-4-[(7-methoxy-1,5-naphthyridin-4-yl)oxy]phenyl]-4-hydroxy-6-methyl-5-(3-thienyl)pyridine-3-carboxamide] | ≤ 100 | ≤ 100
COc1cc2nccc(Oc3ccc(NC(=O)c4c(C)nc(C)c(-c5ccsc5)c4O)cc3F)c2nc1OC [Compound 106] | ≤ 100 | ≤ 100
COCc1nc(C)c(-c2cccs2)c(O)c1C(=O)Nc1ccc(Oc2ccnc3cc(OC)c(OC)nc23)c(F)c1 [Compound 115, N-[4-[(6,7-Dimethoxy-1,5-naphthyridin-4-yl)oxy]-3-fluorophenyl]-4-hydroxy-2-(methoxymethyl)-6-methyl-5-thiophen-2-ylpyridine-3-carboxamide] | ≤ 100 | ≤ 100
COc1cc2nccc(Oc3ccc(NC(=O)c4c(C)nc(C)c(-c5ccc(C(C)C)o5)c4O)cc3F)c2nc1OC [Compound 148, N-[4-[(6,7-Dimethoxy-1,5-naphthyridin-4-yl)oxy]-3-fluorophenyl]-4-hydroxy-2,6-dimethyl-5-(5-propan-2-ylfuran-2-yl)pyridine-3-carboxamide] | ≤ 100 | ≤ 100
COc1cc2nccc(Oc3ccc(NC(=O)c4cnc(C)c(-c5ccoc5)c4O)cc3F)c2nc1OC [Compound 95, N-[4-[(6,7-Dimethoxy-1,5-naphthyridin-4-yl)oxy]-3-fluoro-phenyl]-5-(3-furyl)-4-hydroxy-6-methyl-pyridine-3-carboxamide] | ≤ 100 | ≤ 100
COc1cnc2c(Oc3ccc(NC(=O)c4cnc(C)c(-c5ccc(C)o5)c4O)cc3F)ccnc2c1 [Compound 97, N-[3-Fluoro-4-[(7-methoxy-1,5-naphthyridin-4-yl)oxy]phenyl]-4-hydroxy-6-methyl-5-(5-methyl-2-furyl)pyridine-3-carboxamide] | 100 to 300 | ≤ 100
COc1cc2nccc(Oc3ccc(NC(=O)c4cnc(C)c(-c5ccc(C6CC6)o5)c4O)cc3F)c2nc1OC [Compound 155A, 5-(5-Cyclopropylfuran-2-yl)-N-[4-[(6,7-dimethoxy-1,5-naphthyridin-4-yl)oxy]-3-fluorophenyl]-4-hydroxy-6-methylpyridine-3-carboxamide hydrochloride] | ≤ 100 | ≤ 100

Other lines, results leading:

IC50 (Met) [nM] | IC50 (Mer) [nM] | Structure (SMILES)
≤ 100 | ≤ 100 | COc1cc2nccc(Oc3cc(F)c(NC(=O)c4c(C)n(C)c(C)c(-c5ccco5)c4=O)cc3F)c2nc1OC [Compound 163, N-[4-[(6,7-Dimethoxy-1,5-naphthyridin-4-yl)oxy]-2,5-difluorophenyl]-5-(furan-2-yl)-1,2,6-trimethyl-4-oxopyridine-3-carboxamide]
≤ 100 | ≤ 100 | COc1cnc2c(Oc3ccc(NC(=O)c4cn(CCF)c(C)c(-c5ccoc5)c4=O)cc3F)ccnc2c1 [Compound 334, 1-(2-Fluoroethyl)-N-[3-fluoro-4-[(7-methoxy-1,5-naphthyridin-4-yl)oxy]phenyl]-5-(furan-3-yl)-6-methyl-4-oxopyridine-3-carboxamide]
≤ 100 | ≤ 100 | COc1cc2nccc(Oc3ccc(NC(=O)c4cnc(C)c(-c5cncs5)c4O)cc3F)c2nc1OC [Compound 141, N-[4-[(6,7-Dimethoxy-1,5-naphthyridin-4-yl)oxy]-3-fluorophenyl]-4-hydroxy-6-methyl-5-(1,3-thiazol-5-yl)pyridine-3-carboxamide]
≤ 100 | ≤ 100 | COc1cc2nccc(Oc3ccc(NC(=O)c4c(C)nc(C)c(-c5cc(C)cs5)c4O)cc3F)c2nc1OC [Compound 137, N-[4-[(6,7-Dimethoxy-1,5-naphthyridin-4-yl)oxy]-3-fluorophenyl]-4-hydroxy-2,6-dimethyl-5-(4-methylthiophen-2-yl)pyridine-3-carboxamide]
≤ 100 | ≤ 100 | COc1cc2nccc(Oc3ccc(NC(=O)c4cnc(C)c(-c5cscn5)c4O)cc3F)c2nc1OC [Compound 142, N-[4-[(6,7-Dimethoxy-1,5-naphthyridin-4-yl)oxy]-3-fluorophenyl]-4-hydroxy-6-methyl-5-(1,3-thiazol-4-yl)pyridine-3-carboxamide]
≤ 100 | ≤ 100 | COc1cnc2c(Oc3ccc(NC(=O)c4cn(CCF)c(C)c(-c5ccsc5)c4=O)cc3F)ccnc2c1 [Compound 330, 1-(2-Fluoroethyl)-N-[3-fluoro-4-[(7-methoxy-1,5-naphthyridin-4-yl)oxy]phenyl]-6-methyl-4-oxo-5-thiophen-3-ylpyridine-3-carboxamide]
≤ 100 | ≤ 100 | CCc1ccc(-c2c(C)nc(C)c(C(=O)Nc3ccc(Oc4ccnc5cc(OC)c(OC)nc45)c(F)c3)c2O)o1 [Compound 147, N-[4-[(6,7-Dimethoxy-1,5-naphthyridin-4-yl)oxy]-3-fluorophenyl]-5-(5-ethylfuran-2-yl)-4-hydroxy-2,6-dimethylpyridine-3-carboxamide]
≤ 100 | ≤ 100 | COc1cc2nccc(Oc3ccc(NC(=O)c4cc(Br)c(C)n(-c5ccc(F)cn5)c4=O)cc3F)c2nc1OC [Compound 55, 5-Bromo-N-[4-[(6,7-dimethoxy-1,5-naphthyridin-4-yl)oxy]-3-fluorophenyl]-1-(5-fluoropyridin-2-yl)-6-methyl-2-oxopyridine-3-carboxamide]
≤ 100 | ≤ 100 | COc1cc2nccc(Oc3ccc(NC(=O)c4cnc(C)c(-c5cc(C)cs5)c4O)cc3F)c2nc1OC [Compound 91, N-[4-[(6,7-Dimethoxy-1,5-naphthyridin-4-yl)oxy]-3-fluoro-phenyl]-4-hydroxy-6-methyl-5-(4-methyl-2-thienyl) pyridine-3-carboxamide]
≤ 100 | ≤ 100 | COc1cnc2c(Oc3ccc(NC(=O)c4c(C)n(C)c(C)c(-c5cccs5)c4=O)cc3F)ccnc2c1 [Compound 166, N-[3-Fluoro-4-[(7-methoxy-1,5-naphthyridin-4-yl)oxy]phenyl]-1,2,6-trimethyl-4-oxo-5-thiophen-2-ylpyridine-3-carboxamide]
≤ 100 | ≤ 100 | COc1cc2nccc(Oc3ccc(NC(=O)c4c(C)n(C)c(C)c(-c5cccs5)c4=O)cc3)c2nc1OC [Compound 167, N-[4-[(6,7-Dimethoxy-1,5-naphthyridin-4-yl)oxy]phenyl]-1,2,6-trimethyl-4-oxo-5-thiophen-2-ylpyridine-3-carboxamide]
